Results from patent US20260297060A1, “COMPOUNDS FOR THE DEGRADATION OF MUTANT BRAF” (C4 THERAPEUTICS, INC., priority 2023, published 2026).

Test system: A375 human melanoma xenografts
Test: In vivo therapeutic efficacy in A375 human melanoma xenografts (tumor volume, T/C, TGI), Example 14
Set-up: species or system human tumor in female BALB/c nude mice
Settings: for Tumor volume: mean ± SEM; for T/C / TGI: PG-D21
Protocol: Agents were tested in the A375 human melanoma xenografts. Compound 26 and Compound 141 were administered to BALB/c nude mice bearing A375 tumors from PG-DO and dosed via PO twice a day (BID) or third a day (TIP) or dosed P daily (QD) from PG-D. Dabrafenib was administered to BALB/c nude mice bearing A375 tumors from PG-D1 and dosed via P daily (QD). Compound 26 was dosed at 1.5 mg/kg (QD), 2 mg/kg (TID), 3 mg/kg (BID), 6 mg/kg (QD) and 10 mg/kg (BID) for 21 days. Compound 141 was dosed at 0.75 mg/kg (BID), 1 mg/kg (TID), 1.5 mg/kg (BID), 3 mg/kg (QD) and 5 mg/kg (BID) for 21 days. Dabrafenib was dosed at 100 mg/kg for 21 days. This study was non-GLP.
One hundred and thirty-eight female BALB/c nude Mus Musculus mice procured from Shanghai Lingchang Biological Science and Technology Co., LTD between the ages of six to eight weeks and with body weight between eighteen and twenty-two grams were used for the study. A spare mouse was also procured.
The A375 tumor cells were maintained in vitro in DMEM medium supplemented with 10% fetal bovine serum and 1% Penicillin-Streptomycin at 37° C. in an atmosphere of 5% CO2 in air. The tumor cells were routinely sub-cultured twice weekly. The cells growing in an exponential growth phase were harvested and counted for tumor inoculation.
Each mouse was inoculated subcutaneously at the right flank with A375 cells (5×10^6) in 0.2 mL of PBS supplemented with Matrigel (PBS: Matrigel=1:1) for tumor development. Animals were grouped for efficacy study on day 15 after tumor inoculation when the average tumor volume reached 220 mm^3. The test articles administration and the animal numbers in each group are shown in the above experimental Table 75.
At the time of routine monitoring, the animals were checked daily for any effects of tumor growth and treatments on normal behavior such as mobility, food and water consumption (by looking only), body weight gain/loss (body weights were measured twice weekly), eye/hair matting and any other abnormal effect as stated in the protocol. Death and observed clinical signs were recorded on the basis of the numbers of animals within each subset.
Prior to the onset of drug treatment, mice were measured for tumor size in two dimensions using a caliper, and the tumor volume (mm^3) was calculated using formula V=0.5 a×b^2 where a and b are the long and short diameters of the tumor in mm, respectively. Mice were randomized into different treatment groups based on the tumor volume.
The major endpoint was to see if the tumor growth could be delayed or mice could be cured. The tumor size was then used for calculations of T/C value. The T/C value (in percent) is an indication of antitumor effectiveness; T and C are the mean volumes of the treated and control groups, respectively on specified day.
TGI was calculated for each group using the formula: TGI (%)=[1−(Ti−T0)/(Ci−C0)]×100; Ti is the average tumor volume of a treatment group on a given day, T0 is the average tumor volume of the treatment group on the day of treatment start, Ci is the average tumor volume of the vehicle control group on the same day with Ti, and C0 is the average tumor volume of the vehicle group on the day of treatment start.
A one-way ANOVA followed by Dunnett's multiple comparison test was performed to compare tumor volume among vehicle group (Group 1) and treatment groups (Group 2-Group 12). All data were analyzed using GraphPad Prism, ns indicates p>0.05, * indicates p<0.05, ** indicates p<0.01, *** indicates p<0.001 and **** indicates p<0.0001.
Tumor growth inhibition of Compound 26, Compound 141 and dabrafenib in the treatment of female BALB/c nude mice bearing A375 xenografts was calculated based on tumor volume measured on […]. TGI and T/C were calculated respectively and the data are detailed in Table 82.

[1] = Compound 26, 1.5 mg/kg p.o. BID × 21 days

Q: `CCN(C)S(=O)(=O)Nc1ccc(F)c(Oc2ccc3ncn([C@H]4COC5(CCN(C6CC7(C6)CN(c6cc8c(cc6F)c(N6CCC(=O)NC6=O)nn8C)C7)CC5)C4)c(=O)c3c2)c1C#N` [Compound 26, (3R)-3-[6-[2-cyano-3-[[ethyl(methyl)sulfamoyl]amino]-6-fluoro-phenoxy]-4-oxo-quinazolin-3-yl]-8-[2-[3-(2,4-dioxohexahydropyrimidin-1-yl)-5-fluoro-1-methyl-indazol-6-yl]-2-azaspiro[3.3]heptan-6-yl]-1-oxa-8-azaspiro[4.5]decane] was tested. Which Tumor volume (3 mg/kg p.o. BID x 21 days, day 46 (dosing-free regrowth)) did it give?
A: Its Tumor volume is 1050 ± 191 mm^3.

Q: And the Tumor volume (3 mg/kg p.o. BID x 21 days, day 49 (dosing-free regrowth))?
A: Its Tumor volume is 1328 ± 237 mm^3.

Q: What about the Tumor volume (3 mg/kg p.o. BID x 21 days, day 53 (dosing-free regrowth)) of the same molecule?
A: The Tumor volume was 1789 ± 341 mm^3.

Q: What about the Tumor volume (3 mg/kg p.o. BID x 21 days, day 56 (dosing-free regrowth)) of the same molecule?
A: The Tumor volume was 2242 ± 453 mm^3.

Q: And the “Tumor Size on PG-D21 (Mean ± SEM)” value (3 mg/kg p.o. BID × 21 days)?
A: Its value is 48 ± 9 mm^3.

Q: What about the T/C (3 mg/kg p.o. BID × 21 days) of the same molecule?
A: The T/C was 2.5%.

Q: What about the TGI (3 mg/kg p.o. BID × 21 days) of the same molecule?
A: Its TGI is 110.4%.

Q: And the Tumor volume (6 mg/kg p.o. QD x 21 days, day 0)?
A: The Tumor volume was 220 ± 16 mm^3.

Q: What about the Tumor volume (6 mg/kg p.o. QD x 21 days, day 4) of the same molecule?
A: Its Tumor volume is 243 ± 16 mm^3.

Q: And the Tumor volume (6 mg/kg p.o. QD x 21 days, day 7)?
A: The Tumor volume was 158 ± 10 mm^3.

Q: And the Tumor volume (6 mg/kg p.o. QD x 21 days, day 11)?
A: Its Tumor volume is 101 ± 7 mm^3.

Q: What about the Tumor volume (6 mg/kg p.o. QD x 21 days, day 14) of the same molecule?
A: Its Tumor volume is 62 ± 4 mm^3.

Q: What about the Tumor volume (6 mg/kg p.o. QD x 21 days, day 18) of the same molecule?
A: Its Tumor volume is 49 ± 7 mm^3.

Q: What about the Tumor volume (6 mg/kg p.o. QD x 21 days, day 21) of the same molecule?
A: The Tumor volume was 54 ± 13 mm^3.

Q: And the Tumor volume (6 mg/kg p.o. QD x 21 days, day 25 (dosing-free regrowth))?
A: Its Tumor volume is 137 ± 74 mm^3.

Q: What about the Tumor volume (6 mg/kg p.o. QD x 21 days, day 28 (dosing-free regrowth)) of the same molecule?
A: Its Tumor volume is 230 ± 109 mm^3.

Q: What about the Tumor volume (6 mg/kg p.o. QD x 21 days, day 32 (dosing-free regrowth)) of the same molecule?
A: Its Tumor volume is 335 ± 129 mm^3.

Q: What about the Tumor volume (6 mg/kg p.o. QD x 21 days, day 35 (dosing-free regrowth)) of the same molecule?
A: Its Tumor volume is 478 ± 161 mm^3.

Q: What about the Tumor volume (6 mg/kg p.o. QD x 21 days, day 39 (dosing-free regrowth)) of the same molecule?
A: Its Tumor volume is 751 ± 185 mm^3.

Q: What about the Tumor volume (6 mg/kg p.o. QD x 21 days, day 42 (dosing-free regrowth)) of the same molecule?
A: Its Tumor volume is 894 ± 208 mm^3.

Q: What about the Tumor volume (6 mg/kg p.o. QD x 21 days, day 46 (dosing-free regrowth)) of the same molecule?
A: The Tumor volume was 1363 ± 315 mm^3.

Q: And the Tumor volume (6 mg/kg p.o. QD x 21 days, day 49 (dosing-free regrowth))?
A: The Tumor volume was 1802 ± 396 mm^3.

Q: And the Tumor volume (6 mg/kg p.o. QD x 21 days, day 53 (dosing-free regrowth))?
A: Its Tumor volume is 1863 ± 377 mm^3.

Q: And the Tumor volume (6 mg/kg p.o. QD x 21 days, day 56 (dosing-free regrowth))?
A: The Tumor volume was 2305 ± 461 mm^3.

Q: And the “Tumor Size on PG-D21 (Mean ± SEM)” value (6 mg/kg p.o. QD × 21 days)?
A: The value was 54 ± 13 mm^3.

Q: What about the T/C (6 mg/kg p.o. QD × 21 days) of the same molecule?
A: Its T/C is 2.9%.

Q: And the TGI (6 mg/kg p.o. QD × 21 days)?
A: The TGI was 110.0%.

Q: What about the Tumor volume (10 mg/kg p.o. BID x 21 days, day 0) of the same molecule?
A: Its Tumor volume is 220 ± 15 mm^3.

Q: What about the Tumor volume (10 mg/kg p.o. BID x 21 days, day 4) of the same molecule?
A: Its Tumor volume is 126 ± 10 mm^3.

Q: And the Tumor volume (10 mg/kg p.o. BID x 21 days, day 7)?
A: The Tumor volume was 65 ± 6 mm^3.

Q: And the Tumor volume (10 mg/kg p.o. BID x 21 days, day 11)?
A: Its Tumor volume is 42 ± 4 mm^3.

Q: What about the Tumor volume (10 mg/kg p.o. BID x 21 days, day 14) of the same molecule?
A: The Tumor volume was 26 ± 3 mm^3.

Q: And the Tumor volume (10 mg/kg p.o. BID x 21 days, day 18)?
A: The Tumor volume was 20 ± 2 mm^3.

Q: And the Tumor volume (10 mg/kg p.o. BID x 21 days, day 21)?
A: The Tumor volume was 17 ± 2 mm^3.

Q: What about the Tumor volume (10 mg/kg p.o. BID x 21 days, day 25 (dosing-free regrowth)) of the same molecule?
A: The Tumor volume was 17 ± 2 mm^3.

Q: And the Tumor volume (10 mg/kg p.o. BID x 21 days, day 28 (dosing-free regrowth))?
A: The Tumor volume was 29 ± 3 mm^3.

Q: What about the Tumor volume (10 mg/kg p.o. BID x 21 days, day 32 (dosing-free regrowth)) of the same molecule?
A: Its Tumor volume is 62 ± 16 mm^3.

Q: What about the Tumor volume (10 mg/kg p.o. BID x 21 days, day 35 (dosing-free regrowth)) of the same molecule?
A: The Tumor volume was 112 ± 34 mm^3.

Q: And the Tumor volume (10 mg/kg p.o. BID x 21 days, day 39 (dosing-free regrowth))?
A: Its Tumor volume is 253 ± 70 mm^3.

Q: What about the Tumor volume (10 mg/kg p.o. BID x 21 days, day 42 (dosing-free regrowth)) of the same molecule?
A: Its Tumor volume is 357 ± 91 mm^3.

Q: What about the Tumor volume (10 mg/kg p.o. BID x 21 days, day 46 (dosing-free regrowth)) of the same molecule?
A: The Tumor volume was 550 ± 131 mm^3.

Q: And the Tumor volume (10 mg/kg p.o. BID x 21 days, day 49 (dosing-free regrowth))?
A: The Tumor volume was 711 ± 168 mm^3.

Q: What about the Tumor volume (10 mg/kg p.o. BID x 21 days, day 53 (dosing-free regrowth)) of the same molecule?
A: The Tumor volume was 1021 ± 215 mm^3.

Q: What about the Tumor volume (10 mg/kg p.o. BID x 21 days, day 56 (dosing-free regrowth)) of the same molecule?
A: The Tumor volume was 1128 ± 250 mm^3.

Q: And the “Tumor Size on PG-D21 (Mean ± SEM)” value (10 mg/kg p.o. BID × 21 days)?
A: The value was 17 ± 2 mm^3.

Q: What about the T/C (10 mg/kg, p.o., BID × 21 days) of the same molecule?
A: The T/C was 0.9%.

Q: What about the TGI (10 mg/kg, p.o., BID × 21 days) of the same molecule?
A: The TGI was 112.2%.

Q: What about the minimal effective dose (A-375, po, tumor bearing mouse model, BID, read-out: maximally efficacious minimal dose (MED)) of the same molecule?
A: The minimal effective dose was 3 mg/kg.

Q: What about the “Tumor Size on PG-D21 (Mean ± SEM)” value [1] of the same molecule?
A: Its value is 400 ± 70 mm^3.

Q: And the T/C [1]?
A: The T/C was 21.2%.

Q: And the TGI [1]?
A: The TGI was 89.2%.
